Laboratory results reported in paper PMC10404626 (The Journal of Biological Chemistry, 2023).
pEC50, pIC50: −log10 of the molar value. Where two headings read alike, the source gives them in different places.

Key:
[1] = target: T1, Btbc1 (bovine heart mitochondrial cyt bc1, Complex III) (Bos taurus, UniProt P00157+P13272); conditions: cited from earlier work; for incubation time to reach full inhibitory capacity: classic compounds, typical
[2] = target: T2, Rsbc1 (cyt bc1 from Rhodobacter sphaeroides) (Cereibacter sphaeroides, UniProt Q02761+Q02762); conditions: read-out: half-maximum inhibition (IC50); previous work; cited from earlier work
T2 sequence (Q02761 1-445): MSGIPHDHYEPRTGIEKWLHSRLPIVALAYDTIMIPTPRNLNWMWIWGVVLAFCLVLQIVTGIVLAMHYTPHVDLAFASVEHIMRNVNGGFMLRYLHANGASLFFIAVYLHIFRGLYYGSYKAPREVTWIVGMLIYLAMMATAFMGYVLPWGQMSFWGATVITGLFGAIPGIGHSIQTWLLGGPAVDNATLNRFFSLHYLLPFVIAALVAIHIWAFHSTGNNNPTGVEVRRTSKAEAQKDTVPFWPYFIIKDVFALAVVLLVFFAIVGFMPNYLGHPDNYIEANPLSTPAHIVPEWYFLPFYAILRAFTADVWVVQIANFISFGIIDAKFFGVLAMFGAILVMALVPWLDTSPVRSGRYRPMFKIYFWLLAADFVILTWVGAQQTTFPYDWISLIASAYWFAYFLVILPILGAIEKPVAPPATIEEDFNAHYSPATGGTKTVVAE
T2 sequence (Q02762 1-187): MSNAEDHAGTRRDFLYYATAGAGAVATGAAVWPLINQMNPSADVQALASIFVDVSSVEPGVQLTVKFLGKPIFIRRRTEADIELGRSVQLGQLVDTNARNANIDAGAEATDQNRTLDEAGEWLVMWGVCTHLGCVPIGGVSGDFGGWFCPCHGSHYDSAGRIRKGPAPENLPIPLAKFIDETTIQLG
T2 sequence (Q02760 23-285 partner): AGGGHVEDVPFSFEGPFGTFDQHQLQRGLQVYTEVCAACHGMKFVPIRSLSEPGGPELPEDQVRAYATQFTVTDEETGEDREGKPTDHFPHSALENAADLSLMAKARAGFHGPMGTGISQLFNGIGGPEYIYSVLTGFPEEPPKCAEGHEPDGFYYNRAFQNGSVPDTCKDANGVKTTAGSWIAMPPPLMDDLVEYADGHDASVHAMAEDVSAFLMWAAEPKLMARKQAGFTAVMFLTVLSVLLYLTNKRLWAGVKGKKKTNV

[3] = system: yeast cyt b L275F mutation; conditions: cited from earlier work
[4] = target: T1, Btbc1 (bovine heart mitochondrial cyt bc1, Complex III); experiment: Inhibition of bovine heart mitochondrial cyt bc1 activity; format: biochemical; conditions: IC50, incubation time 5 minutes; cyt c reduction
[5] = system: wild-type P. falciparum-infected erythrocytes; conditions: cited from earlier work
[6] = system: P. falciparum cyt b mutant parasites (F264L, A122T, Y268S); conditions: cyt b Y268S mutant parasites of the 106/1 line; cited from earlier work

Compound: C[C@@]1(c2ccc(Oc3ccccc3)cc2)OC(=O)N(Nc2ccccc2)C1=O (racemic) [famoxadone]
- pIC50 ([1]; read-out: half-maximum inhibition (IC50), previous work): 6.38
- pIC50 [2]: 8.85
- reduction in the IC50 value [3]: 20 fold

Compound: O=C1C(O)=C([C@H]2CC[C@H](c3ccc(Cl)cc3)CC2)C(=O)c2ccccc21 [atovaquone]
- pIC50 [4]: 5.58
- pIC50 ([5]; P. falciparum wild-type lines): ~7.89
- pEC50 ([5]; wild-type parasites of the 106/1 line): 8.96
- pEC50 [6]: < 5.17

Compound: CCCCCCCCCCCC1=C(O)C(=O)c2scnc2C1=O [UHDBT, 5-n-undecyl-6-hydroxy-4,7-dioxobenzothiazole]
- incubation time to reach full inhibitory capacity [1]: less than 5 min

Compound: CO/C(=C/C(N)=O)[C@H](C)[C@H](/C=C/c1csc(-c2csc([C@@H](C)/C=C/C=C/C(C)C)n2)n1)OC [myxothiazol]
- incubation time to reach full inhibitory capacity [1]: less than 5 min

Compound: C/C=C(C)/C=C/C=C/[C@H](OC)[C@@H](C)[C@@H](OC)[C@@H](C)CCc1oc2c(O)c(OC)cc(OC)c2c(=O)c1C [stigmatellin]
- pIC50 [4]: 9.00
- incubation time to reach full inhibitory capacity [1]: less than 5 min
